Source: US12227509B2, “Dihydropyrazolopyrazinone derivative having MGAT2 inhibitory activity” (Shionogi & Co., Ltd., priority 2019, dated 2025)
Converted amounts (≈) assume the structure as drawn.

How the values were obtained:
[1] = molecular target: recombinant human MGAT2 (Homo sapiens (Human), UniProt Q3SYC2); assay: Measurement of human MGAT2 inhibitory activity; type: biochemical; conditions: concentration exhibiting 50% enzyme inhibition; recombinant human MGAT2, 2-Oleoylglycerol/Oleoyl-CoA
recombinant human MGAT2, sequence (Q3SYC2 whole entry): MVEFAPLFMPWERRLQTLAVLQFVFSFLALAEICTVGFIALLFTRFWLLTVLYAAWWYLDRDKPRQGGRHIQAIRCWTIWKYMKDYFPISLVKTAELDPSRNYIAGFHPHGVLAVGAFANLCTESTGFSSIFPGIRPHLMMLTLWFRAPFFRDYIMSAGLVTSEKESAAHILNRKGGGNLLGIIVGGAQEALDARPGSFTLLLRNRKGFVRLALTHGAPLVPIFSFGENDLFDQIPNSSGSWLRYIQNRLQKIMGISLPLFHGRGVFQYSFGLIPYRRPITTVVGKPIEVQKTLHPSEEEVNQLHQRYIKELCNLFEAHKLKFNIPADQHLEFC
Summary of the method: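 Membrane fraction of baculovirus-infected Sf-9 cells expressing N-terminally Flag-tagged full-length human MGAT2, in 100 mmol/L phosphate pH 7.4 with 2 mmol/L DTT. The substrate solution held 30 μmol/L 2-oleoylglycerol and 10 μmol/L oleoyl-CoA. After 1 h at room temperature, diolein/diolein-d5 ratio was read by ESI Q-TOF MS and % inhibition derived against enzyme and no-enzyme controls.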

[2] = Powder solubility test; type: physicochemical; conditions: pH 6.8, aqueous buffer, thermodynamic from solid, JP-2 solution, 37° C.
Protocol: Appropriate quantity of the compound of the present invention was put in suitable containers. 200 μL of JP-1 solution (water was added to 2.0 g of sodium chloride and 7.0 mL of hydrochloric acid to reach 1000 mL), 200 μL of JP-2 solution (500 mL of water was added to 500 mL of phosphate buffer (pH 6.8)) or 20 mmol/L sodium taurocholate (TCA)/JP-2 solution (JP-2 solution was added to 1.08 g of TCA to reach 100 mL) was independently added to each container. When total amount was dissolved after adding the test reagent, the compound of the present invention was added appropriately. After sealing and shaking at 37° C. for 1 hour, solution was filtrated and 100 μL of methanol was added to 100 μL of each filtrate to dilute two-fold. The dilution ratio and the dilution solvent were changed as necessary. After checking that there was no bubble and deposit, the container was sealed and shaken. The compound of the present invention was measured using HPLC by absolute calibration curve method.

SMILES | IC50 [1] [nM] | solubility at 1 h [2] [µM]
N#Cc1ccc(-c2nn3c(c2NC(=O)CC(F)(F)F)C(=O)N[C@@]2(CCc4cc(OCC(F)(F)F)ccc42)C3)nc1 [Compound I-14] | 46.1 | 
CS(=O)(=O)CC(=O)Nc1c(CCC2CC2)nn2c1C(=O)N[C@@]1(CCc3cc(OCC(F)(F)F)ccc31)C2 [Compound I-46] |  | 8.64 (≈ 4.67 µg/mL)
